Results reported in US9078907B2, “Immunoregulator compounds” (Universita Degli Studi Di Roma “Tor Vergata”, priority 2001, dated 2015).

Key:
macrophage PLD = type: cell-based, human
macrophages = experiment: ROI generation by dichlorofluorescein (DCF) flow cytometry; type: cell-based, human
Protocol: Because dichloro fluorescein (DCF) is a fluorochrome obtained from reaction of non fluorescent 2, 7-dichloro fluorescein diacetate (DCFH) with various oxidants, analysis thereof is used to detect cellular oxidative stress and amount of oxygen reactive intermediates (ROI) produced by phagocytic cells. In the used model, this analysis is employed in order to monitor the D-erythro-sphingosine 1-phosphate (S1P) modulated ROI production from macrophages. Macrophages were incubated for 90 minutes with sphingosine 1-phosphate at 0.5 μM, 5 μM, 10 μM and 50 μM concentrations. After the incubation 100 μl of 0.4 μM DCFH (Calbiochem) were added and incubated for at least 30 minutes. Finally, cells were washed with PBS and analysed using FACScan flow cytometer from Becton Dickinson.

[1] = test system: MTB-FITC infected macrophages; experiment: Phagolysosome maturation by flow cytometry of FITC-labelled MTB infected macrophages; type: cell-based, human; settings: MTB-FITC MOI 1 for 3 hours, 5 μM S1P for 30 minutes; S1P non-treated 63.4%
Protocol: In some experiments MTB aliquots, after thawing at room temperature, centrifuged at 10000 rpm for 10 minutes, suspended in PBS and sonicated for 1-2 minutes, were labelled with fluorescein isothiocyanate (FITC) (Sigma). FITC, pre-suspended at 1 μg/ml concentration, was added to the bacterial suspension, which was incubated at 37° C. in the presence of 5% CO2 for about 90 minutes. At the end of the incubation the bacterial suspension was washed three times with centrifugation at 14000 rpm for 15 minutes and suspended in PBS at required concentration.
By virtue of extreme sensitivity of fluorescein isothiocyanate (FITC) to acid pHs this molecule was used to monitor the phagosome acidity and have therefore information about maturation stage of phagolysosome. To this aim, bacteria were labelled with fluorescein isothiocyanate (FITC) as above described. Infection was carried out using FITC labelled bacteria. Then, cells were washed after 3 hours and stimulated for 30 minutes with 5 μM sphingosine 1-phosphate and following 1.5% paraformaldehyde (PFA) fixated and finally monitored by flow cytofluorometry.
In order to evaluate the effect of S1P on a specific antimicrobial activity as the maturation of phagolysosome, the infection with FITC-labelled MTB was carried out and the fluorescence values of FITC-MTB were used as indicators of the phagolysosome maturation. […]

Mycobacterium smegmatis = experiment: Colony forming units of M. smegmatis in differentiated THP-1 cells; type: cell-based; settings: THP-1 macrophage cell line, MOI 50:1, 5 μM, 1, 12 and 24 hours
Protocol: Human monocytic THP-1 leukemia line cells were used in this example as a model for macrophage response. In order to obtain macrophage phenotype, 5×10^5/ml THP-1 cells were induced to differentiate by 48 hours incubation in the presence of 20 ng/ml Phorbol Myristate Acetate (PMA). Differentiated THP-1 cells (dTHP-1) were then centrifuged three times and suspended in complete medium [RPMI 1640 (Gibco BRL) supplemented with 10% fetal bovine serum (Gibco BRL), 5 mM L-glutamine (Invitrogen), 1 mM sodium pyruvate (Gibco BRL) and non-essential amino acids (Euroclone)]. dTHP-1 were then infected for 3 hours with M. smegmatis at the multiplicity of infection of bacterium/cell 50:1. Following infection cells were washed three times with RPMI 1640 and incubated in complete medium at 37° C. for further 1, 12 and 24 hours in the presence or absence of sphingosine-1 phosphate used at the concentration of 5 μM.
In order to assess the role of macrophage PLD activity in sphingosine 1-phosphate induced mycobacterial growth control, following the infection the cells were cultured in the presence of various concentrations of ethanol (0.3%, 0.03%, 0.003%) or 10 nM calphostin C. […] Inhibiting activity of calphostin C is exploited by targeting PLD catalytic domain (Sciorra V. A., Hammond S. M., Morris A. J. Potent direct inhibition of mammalian phospholipase D isoenzymes by calphostin c. Biochemistry 2001; 40: 2640-46). Just after the infection and at the indicated time points, cells were 1) lysed using cold PBS containing 0.1% saponin (Sigma, MA, USA), ii) serially diluted in PBS containing 0.01% Tween-80 (Merck, Darmstadt, Germany) and iii) plated in triplicate in Middlebrook 7H10 medium (Becton Dickinson, MD, USA) supplemented with 10% OADC formulation (0.5 mg/ml oleic acid, 50 mg/ml albumin, 20 mg/ml dextrose, 0.04 mg/ml catalase and 8.5 mg/ml sodium chloride). M. smegmatis colonies were enumerated after incubation for 3 days at 37° C.

[2] = test system: Mycobacterium tuberculosis; experiment: Colony forming units of H37Rv M. tuberculosis in differentiated THP-1 cells; type: cell-based; settings: THP-1 macrophage cell line, MOI 1:10 or 1:1, 5 μM, up to 5 or 7 days
Protocol: Human monocytic THP-1 leukemia line cells were used in this example as a model for macrophage response. In order to obtain macrophage phenotype, 5×10^5/ml THP-1 cells were induced to differentiate by 48 hours incubation in the presence of 20 ng/ml Phorbol Myristate Acetate (PMA). Differentiated THP-1 cells (dTHP-1) were then centrifuged three times and suspended in complete medium [RPMI 1640 (Gibco BRL) supplemented with 10% fetal bovine serum, 5 mM L-glutamine) (Invitrogen), 1 mM sodium pyruvate (Gibco BRL) and non-essential amino acids (Euroclone), 5 μg/ml gentamicin (Invitrogen)]. dTHP-1 were then infected for 3 hours with H37Rv M. tuberculosis at the multiplicity of infection of 1:10 (FIG. 8A) or 1:1 (FIG. 8B) bacterium/cell. After infection cells were washed three times with RPMI 1640 and incubated in complete medium for further 1, 2 and 5 days (FIG. 8A) or 1 and 7 days (FIG. 8B) in the presence or absence of sphingosine 1-phosphate used at the concentration of 5 μM. […]

Q: `CCCCCCCCCCCCC/C=C/[C@@H](O)[C@@H](N)COP(=O)(O)O` [S1P, D-erythro-sphingosine 1-phosphate] was tested. Which “Pet-OH production, index of PLD activity, versus MTB infected non S1P treated macrophages” value (macrophage PLD) did it give?
A: higher

Q: And the “S1P concentration giving maximum activation of macrophage PLD” value (macrophage PLD)?
A: 5 µM

Q: What about the “time of maximum activation of macrophage PLD” value (macrophage PLD) of the same molecule?
A: 30 min

Q: And the “ROI production by macrophages over the time” value (macrophages; 5 μM S1P, DCF positive response after 30 and 90 minutes)?
A: increases progressively over the time

Q: What about the “S1P dose giving maximum DCF positive response” value (macrophages; scalar S1P doses, % DCF positive cells) of the same molecule?
A: 5-10 μm

Q: And the “% of fluorescent macrophages (FITC-MTB fluorescence)” value [1]?
A: 38.9%

Q: And the “intracellular replication of Mycobacterium smegmatis (CFU)” value (Mycobacterium smegmatis)?
A: inhibits

Q: What about the “intracellular replication of Mycobacterium tuberculosis (CFU)” value [2] of the same molecule?
A: inhibits
